The values below come from US20240018153A1, “BENZENESULFONAMIDE DERIVATIVES AND USES THEREOF” (2692372 ONTARIO, INC., priority 2020, published 2024).

Some results are limits rather than exact numbers.

One assay concerns the target EGFR (Homo sapiens (Human), UniProt P00533). Nature of the assay: HTRF KinEASE-TK kinase assay, EGFR. It is filed as biochemical. The note with it: 3 h preincubation; for remaining activity at 1 µM: 1 μM compound, read-out: % EGFR Remaining activity vs DMSO (1 μM, 3 h); for remaining activity at 10 µM: 10 μM compound, read-out: % EGFR Remaining activity vs DMSO (10 μM, 3 h). The procedure, abridged: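 Buffer contained 5 mM MgCl2, 2 mM MnCl2 and 1 mM TCEP; compounds at two final concentrations, 1 and 10 uM, with 0.5% DMSO, pre-incubated with the enzyme.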
For orientation: Time-resolved FRET reads energy transfer from a long-lived donor to a nearby acceptor.

The target of assay [1] is T1, BTK (Homo sapiens (Human), UniProt Q06187). Nature of the assay: HTRF KinEASE-TK kinase assay, BTK. Format: biochemical. The conditions noted are these: 3 h preincubation; for remaining activity at 1 µM: 1 μM compound, read-out: % BTK Remaining activity vs DMSO (1 μM, 3 h); for remaining activity at 10 µM: 10 μM compound, read-out: % BTK Remaining activity vs DMSO (10 μM, 3 h); for IC50: dose response, read-out: BTK Inhibition IC50. The procedure, abridged: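 Read-out was the 665 nm to 620 nm ratio, taken 60 min after detection, reflecting phosphorylated biotinylated substrate. Before this, BTK reacted 45 min with substrate and ATP in kinase buffer supplemented with MnCl2 (10 mM), MgCl2 (5 mM), ATPγS (1 uM) and TCEP (1 mM).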

Assay [2] concerns the target T1, BTK. Nature of the assay: Ramos RA1 cell lysis and immunoassay, total BTK degradation. Format: cell-based. Also on record: key to % BTK degradation (RAMOS, 24 h): Y: BTK bound in cells and BTK degradation occurred; concentration or dose not given beside the values. The note with it: RAMOS cells. The procedure, abridged: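 Ramos RA1 cells treated with compound or DMSO for 24 h at 37° C., lysed in RIPA, analysed by Simple Western. Total BTK normalised to β-actin, pBTK (Y223) to total-protein reagent; both expressed relative to DMSO control.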

The target in a further assay is BMX (Homo sapiens (Human), UniProt P51813). Nature of the assay: HTRF KinEASE-TK kinase assay, BMX. It is filed as biochemical. The conditions noted are these: for remaining activity at 1 µM: 1 uM compound; for remaining activity at 1 µM / remaining activity at 10 µM: 3 h preincubation; for remaining activity at 10 µM: 10 uM compound; for IC50: dose response. In short, it runs like this:
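Phosphorylation was quantified by HTRF KinEASE-TK as the 665/620 nm ratio, read 60 min after EDTA stop with SA-XL665 (31.25 nM) and europium antibody. Before the reaction, 3.03 nM BMX was preincubated with compound for 3 hours at room temperature, and the reaction was started with biotinylated substrate plus ATP.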

The target in the next assay is JAK3 (Homo sapiens (Human), UniProt P52333). Nature of the assay: HTRF KinEASE-TK kinase assay, JAK3. It is filed as biochemical. The conditions noted are these: for remaining activity at 1 µM: read-out: % JAK3 Remaining activity vs DMSO (1 μM, 3 h); for remaining activity at 10 µM: read-out: % JAK3 Remaining activity vs DMSO (10 μM, 3 h). In short, it runs like this: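 HTRF read-out: the Em665/Em620 ratio, measured 60 min after stopping with EDTA, 31.25 nM SA-XL665 and 100-fold diluted Eu-antibody, was taken as phosphorylated substrate. Beforehand, 0.21 nM JAK3 (0.0133 ng/µl) sat with compound for 3 h at room temperature, then biotinylated substrate plus ATP started the reaction.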

The next assay deals with FGFR4 (Homo sapiens (Human), UniProt P22455). Kind of assay: HTRF KinEASE-TK kinase assay, FGFR4. It is filed as biochemical. The note with it: for remaining activity at 1 µM: read-out: % FGFR4 Remaining activity vs DMSO (1 μM, 3 h); for remaining activity at 10 µM: read-out: % FGFR4 Remaining activity vs DMSO (10 μM, 3 h); for IC50: dose response. The procedure, abridged:
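HTRF ratio (Em 665/620 nm) measured 60 min after EDTA stop with SA-XL665 (31.25 nM) and europium antibody reflects phosphorylated biotinylated substrate. Before substrate/ATP addition, 5.12 nM (0.333 ng/ul) FGFR4 sat with compound 3 h at room temperature.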

In a further assay the target is RIPK2 (Homo sapiens (Human), UniProt O43353). Kind of assay: In vitro RIPK2 inhibition. The note with it: for remaining activity at 1 µM: read-out: % RIPK2 Remaining activity vs DMSO (1 μM, 3 h); for remaining activity at 10 µM: read-out: % RIPK2 Remaining activity vs DMSO (10 μM, 3 h). It is filed as biochemical.
Sequence of RIPK2 (O43353 whole entry, species assumed): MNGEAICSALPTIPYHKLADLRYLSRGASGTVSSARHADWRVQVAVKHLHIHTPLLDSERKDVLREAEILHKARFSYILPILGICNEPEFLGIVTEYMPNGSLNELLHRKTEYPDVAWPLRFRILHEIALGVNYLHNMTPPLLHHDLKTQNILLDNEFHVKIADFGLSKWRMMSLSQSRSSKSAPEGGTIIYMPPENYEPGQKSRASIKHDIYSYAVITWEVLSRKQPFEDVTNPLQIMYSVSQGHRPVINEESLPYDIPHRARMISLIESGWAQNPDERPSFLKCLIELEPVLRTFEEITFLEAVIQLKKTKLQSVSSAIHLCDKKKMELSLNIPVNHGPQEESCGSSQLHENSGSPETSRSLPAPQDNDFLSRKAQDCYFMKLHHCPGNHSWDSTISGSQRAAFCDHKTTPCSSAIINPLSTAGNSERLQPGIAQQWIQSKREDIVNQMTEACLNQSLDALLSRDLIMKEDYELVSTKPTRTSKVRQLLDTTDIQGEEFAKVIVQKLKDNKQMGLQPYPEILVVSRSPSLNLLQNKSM

Sequence of EGFR (P00533 25-1210): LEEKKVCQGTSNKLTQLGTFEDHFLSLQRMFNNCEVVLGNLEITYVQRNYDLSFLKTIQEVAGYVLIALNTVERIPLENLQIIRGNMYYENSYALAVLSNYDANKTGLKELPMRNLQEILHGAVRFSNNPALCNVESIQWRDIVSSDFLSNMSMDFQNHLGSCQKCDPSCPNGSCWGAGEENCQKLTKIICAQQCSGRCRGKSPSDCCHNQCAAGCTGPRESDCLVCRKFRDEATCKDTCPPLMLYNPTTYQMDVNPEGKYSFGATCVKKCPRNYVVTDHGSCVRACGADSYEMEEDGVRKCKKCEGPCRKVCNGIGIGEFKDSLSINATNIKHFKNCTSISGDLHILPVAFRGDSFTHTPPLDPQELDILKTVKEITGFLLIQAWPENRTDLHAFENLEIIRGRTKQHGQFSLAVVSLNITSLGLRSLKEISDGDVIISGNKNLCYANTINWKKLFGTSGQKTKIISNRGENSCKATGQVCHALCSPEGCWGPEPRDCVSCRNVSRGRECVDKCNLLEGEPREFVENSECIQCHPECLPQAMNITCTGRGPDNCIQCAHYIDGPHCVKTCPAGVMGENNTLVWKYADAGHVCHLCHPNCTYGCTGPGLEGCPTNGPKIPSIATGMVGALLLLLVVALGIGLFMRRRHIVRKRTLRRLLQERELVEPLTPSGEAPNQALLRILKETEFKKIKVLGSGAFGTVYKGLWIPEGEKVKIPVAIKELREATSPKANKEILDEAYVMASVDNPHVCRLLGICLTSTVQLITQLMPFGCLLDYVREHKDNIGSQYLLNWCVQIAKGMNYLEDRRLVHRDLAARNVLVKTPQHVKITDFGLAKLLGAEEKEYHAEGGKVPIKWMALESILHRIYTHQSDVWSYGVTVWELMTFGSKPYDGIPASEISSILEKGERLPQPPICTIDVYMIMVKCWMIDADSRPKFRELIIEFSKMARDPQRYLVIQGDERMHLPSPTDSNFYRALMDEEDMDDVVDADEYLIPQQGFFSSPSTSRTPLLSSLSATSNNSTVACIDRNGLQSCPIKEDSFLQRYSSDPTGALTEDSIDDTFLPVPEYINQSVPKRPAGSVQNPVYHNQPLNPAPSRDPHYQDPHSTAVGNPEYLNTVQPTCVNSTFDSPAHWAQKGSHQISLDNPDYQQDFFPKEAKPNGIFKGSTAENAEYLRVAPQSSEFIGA
Sequence of JAK3 (P52333 781-1124): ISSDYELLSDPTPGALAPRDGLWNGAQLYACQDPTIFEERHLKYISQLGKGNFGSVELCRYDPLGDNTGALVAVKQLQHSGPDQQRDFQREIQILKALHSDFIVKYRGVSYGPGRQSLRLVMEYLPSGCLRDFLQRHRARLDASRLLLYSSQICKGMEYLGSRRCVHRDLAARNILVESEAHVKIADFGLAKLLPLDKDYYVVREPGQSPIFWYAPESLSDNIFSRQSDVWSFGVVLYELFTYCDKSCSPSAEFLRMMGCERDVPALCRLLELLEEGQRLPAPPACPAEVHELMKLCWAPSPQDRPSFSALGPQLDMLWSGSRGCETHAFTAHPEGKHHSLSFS
Sequence of BMX (P51813 whole entry): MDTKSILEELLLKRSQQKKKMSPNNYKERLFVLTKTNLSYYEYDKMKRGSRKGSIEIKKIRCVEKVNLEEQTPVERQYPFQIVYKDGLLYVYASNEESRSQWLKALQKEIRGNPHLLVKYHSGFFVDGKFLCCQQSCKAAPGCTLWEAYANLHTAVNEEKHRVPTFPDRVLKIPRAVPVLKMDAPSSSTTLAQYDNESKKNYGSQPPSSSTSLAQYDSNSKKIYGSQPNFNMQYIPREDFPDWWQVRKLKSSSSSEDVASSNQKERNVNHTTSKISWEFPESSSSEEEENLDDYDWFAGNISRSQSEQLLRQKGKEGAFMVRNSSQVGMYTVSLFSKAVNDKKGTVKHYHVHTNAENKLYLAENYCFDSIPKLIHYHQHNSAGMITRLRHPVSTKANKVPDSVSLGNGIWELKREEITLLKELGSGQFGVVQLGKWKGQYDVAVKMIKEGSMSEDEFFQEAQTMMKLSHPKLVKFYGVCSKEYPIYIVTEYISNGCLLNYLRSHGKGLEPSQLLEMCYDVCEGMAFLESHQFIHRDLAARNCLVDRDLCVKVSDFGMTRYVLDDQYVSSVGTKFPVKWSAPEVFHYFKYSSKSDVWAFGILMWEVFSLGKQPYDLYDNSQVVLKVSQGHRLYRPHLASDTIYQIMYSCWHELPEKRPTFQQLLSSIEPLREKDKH
T1 sequence (Q06187 whole entry): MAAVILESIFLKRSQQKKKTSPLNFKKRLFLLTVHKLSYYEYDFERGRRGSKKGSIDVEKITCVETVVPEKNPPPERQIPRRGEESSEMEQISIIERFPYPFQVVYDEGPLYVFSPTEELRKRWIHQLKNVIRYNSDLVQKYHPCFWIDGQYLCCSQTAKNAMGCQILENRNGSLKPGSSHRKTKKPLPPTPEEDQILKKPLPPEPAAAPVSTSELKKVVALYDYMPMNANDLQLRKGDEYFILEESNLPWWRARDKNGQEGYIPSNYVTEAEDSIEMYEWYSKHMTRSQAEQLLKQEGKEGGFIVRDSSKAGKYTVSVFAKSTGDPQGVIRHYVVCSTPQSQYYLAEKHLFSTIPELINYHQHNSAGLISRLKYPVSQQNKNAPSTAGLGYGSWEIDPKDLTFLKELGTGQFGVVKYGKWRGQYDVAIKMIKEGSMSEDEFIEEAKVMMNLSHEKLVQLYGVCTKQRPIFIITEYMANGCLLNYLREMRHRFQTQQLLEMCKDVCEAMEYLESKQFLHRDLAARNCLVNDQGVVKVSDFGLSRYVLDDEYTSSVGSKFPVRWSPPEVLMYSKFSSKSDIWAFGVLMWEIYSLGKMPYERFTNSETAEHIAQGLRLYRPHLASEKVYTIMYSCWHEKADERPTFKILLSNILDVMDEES
Sequence of FGFR4 (P22455 22-802): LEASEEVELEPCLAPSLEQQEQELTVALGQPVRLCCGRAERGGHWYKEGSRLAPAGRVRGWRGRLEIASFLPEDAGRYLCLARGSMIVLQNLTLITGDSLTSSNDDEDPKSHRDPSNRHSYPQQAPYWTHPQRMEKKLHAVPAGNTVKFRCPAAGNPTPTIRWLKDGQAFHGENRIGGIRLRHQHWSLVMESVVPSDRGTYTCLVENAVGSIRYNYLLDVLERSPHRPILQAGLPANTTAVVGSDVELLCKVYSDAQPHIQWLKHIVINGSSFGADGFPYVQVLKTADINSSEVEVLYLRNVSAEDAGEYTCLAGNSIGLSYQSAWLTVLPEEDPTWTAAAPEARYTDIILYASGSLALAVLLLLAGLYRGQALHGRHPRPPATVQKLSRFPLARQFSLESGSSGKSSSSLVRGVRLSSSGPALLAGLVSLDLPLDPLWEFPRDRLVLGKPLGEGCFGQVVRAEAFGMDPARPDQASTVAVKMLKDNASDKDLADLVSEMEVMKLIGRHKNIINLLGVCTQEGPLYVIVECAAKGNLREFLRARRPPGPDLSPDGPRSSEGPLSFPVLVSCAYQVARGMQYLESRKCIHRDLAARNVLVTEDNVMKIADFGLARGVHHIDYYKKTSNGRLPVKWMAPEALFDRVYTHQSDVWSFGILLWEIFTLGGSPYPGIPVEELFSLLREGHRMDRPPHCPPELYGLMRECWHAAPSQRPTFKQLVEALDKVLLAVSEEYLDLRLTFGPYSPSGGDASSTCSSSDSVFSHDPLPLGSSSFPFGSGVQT

As for `CN(C)S(=O)(=O)c1c(F)c(F)c(F)c(F)c1C(=O)NCCCn1nc(-c2ccc(Oc3ccccc3)cc2)c2c(N)ncnc21` [Compound I-41, N-(3-(4-amino-3-(4-phenoxyphenyl)-1H-pyrazolo[3,4-d]pyrimidin-1-yl)propyl)-2-(N,N-dimethylsulfamoyl)-3,4,5,6-tetrafluorobenzamide], the remaining activity (usually the activity still measured, relative to the control) at 1 µM on EGFR is less than 50%; at BTK [1] it was less than 50%; on BMX it was less than 50%; on JAK3 it was greater than 90%; at FGFR4 it was 50 to 90%; at RIPK2, greater than 90%. Also, the remaining activity at 10 µM is less than 50% on EGFR; less than 50% at BTK [1]; less than 50% on BMX; greater than 90% on JAK3; less than 50% on FGFR4; greater than 90% on RIPK2. Also, the “% BTK degradation (RAMOS, 24 h)” value at BTK [2] is reported as “Y”. Further, the IC50 – broadly, the midpoint of a concentration-inhibition curve – at BMX is less than 1 µM.
Regarding `CN(CCn1nc(-c2ccc(Oc3ccccc3)cc2)c2c(N)ncnc21)C(=O)c1c(F)c(F)c(F)c(F)c1S(N)(=O)=O` [Compound I-33, N-(2-(4-amino-3-(4-phenoxyphenyl)-1H-pyrazolo[3,4-d]pyrimidin-1-yl)ethyl)-2,3,4,5-tetrafluoro-N-methyl-6-sulfamoylbenzamide], the remaining activity at 1 µM was greater than 90% on EGFR; less than 50% on BTK [1]; less than 50% at BMX; greater than 90% on JAK3; 50 to 90% on FGFR4; 50 to 90% on RIPK2. The remaining activity at 10 µM at EGFR was less than 50%; at BTK [1], less than 50%; on BMX it was less than 50%; at JAK3, 50 to 90%; at FGFR4 it was less than 50%; on RIPK2 it was greater than 90%. Besides, the IC50 on BTK [1] was less than 1 µM. Besides, the “% BTK degradation (RAMOS, 24 h)” value at BTK [2] is “Y”.
With `Nc1ncnc2c1c(-c1ccc(Oc3ccccc3)cc1)nn2CCCNC(=O)c1c(F)c(F)c(F)c(F)c1S(N)(=O)=O` [Compound I-34, N-(3-(4-amino-3-(4-phenoxyphenyl)-1H-pyrazolo[3,4-d]pyrimidin-1-yl)propyl)-2,3,4,5-tetrafluoro-6-sulfamoylbenzamide], the remaining activity at 1 µM on EGFR is less than 50%; on BTK [1], less than 50%; at BMX it was less than 50%; at JAK3, 50 to 90%; at FGFR4, less than 50%; at RIPK2, greater than 90%. The remaining activity at 10 µM was less than 50% at EGFR; less than 50% on BTK [1]; less than 50% at BMX; less than 50% on JAK3; less than 50% at FGFR4; greater than 90% at RIPK2. In addition, the IC50 on BTK [1], against BMX and on FGFR4 was less than 1 µM in each case. Besides, the “% BTK degradation (RAMOS, 24 h)” value on BTK [2] is listed as “Y”.
Turning to `COCCOc1ccc(Nc2ncc(F)c(Nc3cccc(NC(=O)c4c(F)c(F)c(F)c(F)c4S(=O)(=O)N(C)C)c3)n2)cc1` [Compound I-59, 2-(N,N-dimethylsulfamoyl)-3,4,5,6-tetrafluoro-N-(3-((5-fluoro-2-((4-(2-methoxyethoxy)phenyl)amino)pyrimidin-4-yl)amino)phenyl)benzamide], the remaining activity at 1 µM is greater than 90% on EGFR; less than 50% at BTK [1]; less than 50% on BMX; 50 to 90% on JAK3; less than 50% at FGFR4; less than 50% at RIPK2. For the same molecule, the remaining activity at 10 µM was greater than 90% on EGFR; less than 50% at BTK [1]; less than 50% at BMX; 50 to 90% on JAK3; less than 50% at FGFR4; less than 50% at RIPK2. At BTK [2], the “% BTK degradation (RAMOS, 24 h)” value is listed as “Y”. On FGFR4, this molecule had an IC50 of less than 1 µM.
Turning to `CN(C)S(=O)(=O)c1c(F)c(F)c(F)c(F)c1C(=O)NCCNc1ncnc2[nH]ccc12` [Compound I-47, N-(2-((7H-pyrrolo[2,3-d]pyrimidin-4-yl)amino)ethyl)-2-(N,N-dimethylsulfamoyl)-3,4,5,6-tetrafluorobenzamide], the remaining activity at 1 µM is greater than 90% at EGFR; less than 50% at BTK [1]; less than 50% at BMX; less than 50% on JAK3; 50 to 90% at FGFR4; less than 50% at RIPK2. Besides, the remaining activity at 10 µM on EGFR is greater than 90%; on BTK [1], less than 50%; at BMX it was less than 50%; on JAK3, less than 50%; at FGFR4, 50 to 90%; at RIPK2, less than 50%. For the same molecule, the “% BTK degradation (RAMOS, 24 h)” value at BTK [2] is “Y”. The 50% inhibitory concentration (IC50) on BMX and on JAK3 (dose response) was less than 1 µM in each case.
As for `CS(=O)(=O)c1c(F)c(F)c(F)c(F)c1C(=O)NCCCn1nc(-c2ccc(Oc3ccccc3)cc2)c2c(N)ncnc21` [Compound I-39, N-(3-(4-amino-3-(4-phenoxyphenyl)-1H-pyrazolo[3,4-d]pyrimidin-1-yl)propyl)-2,3,4,5-tetrafluoro-6-(methylsulfonyl)benzamide], the remaining activity at 1 µM was less than 50% at EGFR; less than 50% on BTK [1]; less than 50% at BMX; 50 to 90% at JAK3; less than 50% at FGFR4; greater than 90% on RIPK2. Moreover, the remaining activity at 10 µM was less than 50% at EGFR; less than 50% at BTK [1]; less than 50% on BMX; less than 50% on JAK3; less than 50% on FGFR4; greater than 90% on RIPK2. In addition, the IC50 is less than 1 µM on EGFR (dose response, read-out: EGFR Inhibition IC50) and less than 1 µM against FGFR4. Besides, the “% BTK degradation (RAMOS, 24 h)” value on BTK [2] is “Y”.
Turning to `CN(C)S(=O)(=O)c1c(F)c(F)c(F)c(F)c1C(=O)NCCn1nc(-c2ccc(Oc3ccccc3)cc2)c2c(N)ncnc21` [Compound I-40, N-(2-(4-amino-3-(4-phenoxyphenyl)-1H-pyrazolo[3,4-d]pyrimidin-1-yl)ethyl)-2-(N,N-dimethylsulfamoyl)-3,4,5,6-tetrafluorobenzamide], the remaining activity at 1 µM at EGFR is less than 50%; on BTK [1], less than 50%; on BMX, less than 50%; on JAK3, greater than 90%; at FGFR4 it was 50 to 90%; at RIPK2, greater than 90%. Also, the remaining activity at 10 µM on EGFR is less than 50%; at BTK [1] it was less than 50%; on BMX, less than 50%; on JAK3 it was 50 to 90%; on FGFR4 it was less than 50%; at RIPK2, greater than 90%. Besides, on BTK [1], the IC50 was less than 1 µM. The “% BTK degradation (RAMOS, 24 h)” value on BTK [2] is listed as “Y”.
